Measurements published in US8835379B2, “Derivatives of CGRP” (Novo Nordisk A/S, priority 2009, dated 2014).

Tests used:
[1] = CGRP-induced reduction in food intake by automatic food intake measurements (FeedWin); assay type: in vivo, Sprague Dawley (SD) rats; conditions: SD rats, s.c., monitored for 48 hours, FIG. 4
Excerpt: Upon arrival male Sprague Dawley (SD) rats were housed two per cage with a dividing wall between them. They were housed at reversed diurnal rhythm and with environmental enrichment. The rats were acclimatized to reversed diurnal rhythm for at least 1 week before being transferred to the experimental system cages (single housed). They were acclimatized to the experimental system cages for an additional 5-6 days before start of the experiment. The rats had ad libitum access to food (Altromin 1324) and water during acclimatization periods.
One day before start of the study the rats were divided in three or four groups (n=5-8) based on body weight (250-300 g).
16 hours before start of the study the rats were fasted. Food was returned in connection with dosing. The rats received a single injection subcutaneously (s.c., 1 ml/kg) with vehicle or CGRP analogue. Intraperitoneally dosing (i.p., 1 ml/kg) was used in the first experiment of the al analogue. The effect of analogues on food and water consumption was examined in a “FeedWIN” system (Ellegaard Systems A/S, Faaborg, Denmark). The system contained 32 stations. In each station the continuous water and food consumption for a single rat was recorded.
A station consisted of a cage with metal lid and two scales placed on each side of the cage. […] Data was collected each 15 minutes and up to 48 hours and expressed as accumulated food intake (Mean±SEM).

[2] = target: CGRP receptor (calcitonin receptor-like receptor (CRLR), receptor activity modifying protein-1 (RAMP1)) (Homo sapiens, UniProt O60894+Q16602); assay: CGRP-induced cAMP accumulation in CGRP receptor expressing cells (CHO, CRE luciferase reporter); assay type: cell-based
Experimental: Chinese hamster ovary (CHO) cells were stably transfected with calcitonin receptor-like receptor (CRLR), receptor activity modifying protein-1 (RAMP1) and CRE luciferase (cAMP responsive element for control of luciferase gene expression). Luciferase is a reporter-gene reporting accumulation of intracellular cAMP).
Cells were cultured in F12 media supplemented with GlutaMAX™ (Gibco cat no 31765-027), FBS (10%, Gibco 16140-071), Penicillin-streptomycin (1%, Lonza DE-17-602E), G418 (400 μg/ml, Gibco 10131-027), Blasticidine (10 μg/ml, Corning cat no 15205), Hygromycin (400 μg/ml, Calbiochem cat no 400052).
Cells were seeded in a 96 well plate (Packard #6005180), 20000 cells/well in 100 μl media on the day before experimentation. On the day of experimentation media was replaced by assay medium (Dulbecco's media w/o phenol red (Gibco cat no 11880-028) supplemented with 10% FBS (10%, Gibco 16140-071), Hepes (10 mM, Gibco cat no 15630), GlutaMAX™ (2 mM, Gibco cat no 35050), 50 μl/well.
Peptides were diluted in assay media before added to cells for stimulation, 50 μl/well.
Cells were incubated 5% CO2, 37° C. for 4 hours.
Assay medium and peptides were replaced by phosphate buffered saline (PBS, Gibco cat no 14040-091), 100 μl/well and LucLite™ (PerkinElmer, cat no 6076759), 100 μl/well were added. The plate was sealed before incubation for 30 min at room temperature (21° C.). Luciferase activity (luminescens, 7 s/well) was measured (TopCount®, NXT, Packard).
Dose-response curves were fitted by use of GraphPad Prism software and pEC50 values were calculated. Data were given as mean±SEM, n=2 and each analogue was tested twice.

[3] = Pharmacokinetic properties of CGRP and analogues, plasma level by CGRP ELISA; assay type: in vivo; conditions: male, Sprague Dawley, rat, sc, SD rats, single s.c. injection, Analog alpha1 151 nmol/kg, Analogue beta1 231 nmol/kg
Experimental: Male Sprague Dawley rats (n=24) weighing approximately 250 g were used for the combined pharmacokinetic (T½, Cmaxetc.) and pharmacodynamic (GLP-1 release) study. The rats were divided in 4 groups with n=6 rats per group. The rats were treated with a single subcutaneous injection (1 ml/kg) of vehicle, alpha-CGRP (138 nmol/kg), Analogue beta1 (231 nmol/kg) or Analog alpha1 (151 nmol/kg). Blood (200 μl) was sampled from vena sublingualis from unanaesthetised rats pre-dose and at 0.5, 1, 3, 7 and 24 hours post dosing. Blood was collected in tubes containing EDTA. The samples were kept on ice and centrifuged. The plasma was kept at −20° C. until analysis for CGRP analog and total GLP-1.
A commercial available kit (Human CGRP ELISA, cat. #A05481, SPIbio) was used for monitoring the plasma levels of CGRP-analogues. Briefly, the assay was a two-sited enzyme-linked immuno sorbent assay (ELISA) using two antibodies against human CGRP. A monoclonal antibody was immobilized to the surface of micro plate wells. Five micro liter of plasma samples or calibrators were applied to the appropriate wells and incubated for 2 hours together with 100 μL buffer and 100 μL AChE-conjugated Fab′ fragment. […] The color intensity was determined by spectrophotometer at 405 nm. […] The lower limit of quantification of the modified CGRP assay was approximately 750 pM and the imprecision was (% CV)<10%.

CGRP receptor (calcitonin receptor-like receptor (CRLR), receptor activity modifying protein-1 (RAMP1)), sequence (Q16602 23-461, species assumed): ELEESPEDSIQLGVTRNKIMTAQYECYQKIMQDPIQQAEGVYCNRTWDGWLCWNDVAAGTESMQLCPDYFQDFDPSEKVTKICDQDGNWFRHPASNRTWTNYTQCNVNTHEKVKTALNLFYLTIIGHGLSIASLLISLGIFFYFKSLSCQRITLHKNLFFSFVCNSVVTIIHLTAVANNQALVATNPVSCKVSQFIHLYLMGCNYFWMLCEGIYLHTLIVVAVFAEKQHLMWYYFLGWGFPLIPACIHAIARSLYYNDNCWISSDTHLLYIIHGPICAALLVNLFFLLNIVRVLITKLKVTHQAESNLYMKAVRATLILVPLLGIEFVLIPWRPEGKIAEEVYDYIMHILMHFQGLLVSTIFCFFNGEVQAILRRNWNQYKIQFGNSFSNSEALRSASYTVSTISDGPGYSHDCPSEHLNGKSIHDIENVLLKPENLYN
CGRP receptor (calcitonin receptor-like receptor (CRLR), receptor activity modifying protein-1 (RAMP1)), sequence (O60894 27-148, species assumed): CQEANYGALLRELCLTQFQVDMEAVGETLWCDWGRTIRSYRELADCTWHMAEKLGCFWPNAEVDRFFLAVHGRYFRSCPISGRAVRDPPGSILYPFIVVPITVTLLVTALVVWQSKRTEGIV

Compound	accumulated food intake [1]	EC50 [2] [nM]	Cmax [3] [µM]	half-life ([3]; read-out: T½) [h]
N-alpha-[2-(2-{2-[(S)-4-Carboxy-4-(17-carboxyheptadecanoylamino)butyrylamino]ethoxy}ethoxy)acetyl][Ser1]beta-human CGRP peptide [Analogue beta 1]	Reduction in accumulated food intake	–	–	–
CC(C)C[C@H](NC(=O)CNC(=O)[C@H](C)NC(=O)[C@H](CC(C)C)NC(=O)[C@H](CCCNC(=N)N)NC(=O)[C@H](Cc1c[nH]cn1)NC(=O)[C@@H](NC(=O)[C@@H](NC(=O)[C@@H]1CSSC[C@H](NC(=O)[C@H](CO)NC(=O)COCCOCCNC(=O)CC[C@H](NC(=O)CCCCCCCCCCCCCCCCC(=O)O)C(=O)O)C(=O)N[C@@H](CC(=O)O)C(=O)N[C@@H]([C@@H](C)O)C(=O)N[C@@H](C)C(=O)N[C@@H]([C@@H](C)O)C(=O)N1)C(C)C)[C@@H](C)O)C(=O)N[C@@H](CC(C)C)C(=O)N[C@@H](CO)C(=O)N[C@@H](CCCNC(=N)N)C(=O)N[C@@H](CO)C(=O)NCC(=O)NCC(=O)N[C@H](C(=O)N[C@H](C(=O)N[C@@H](CCCCN)C(=O)N[C@@H](CC(N)=O)C(=O)N[C@@H](CC(N)=O)C(=O)N[C@@H](Cc1ccccc1)C(=O)N[C@H](C(=O)N1CCC[C@H]1C(=O)N[C@H](C(=O)N[C@@H](CC(N)=O)C(=O)N[C@H](C(=O)NCC(=O)N[C@@H](CO)C(=O)N[C@@H](CCCCN)C(=O)N[C@@H](C)C(=O)N[C@@H](Cc1ccccc1)C(N)=O)C(C)C)[C@@H](C)O)C(C)C)C(C)C)C(C)C [Analogue alpha 1, N-alpha-[2-(2-{2-[(S)-4-Carboxy-4-(17-carboxyheptadecanoylamino)butyrylamino]ethoxy}ethoxy)acetyl][Ser1]alpha-human CGRP peptide]	–	0.09	0.25	> 7
